For assay [1], the system named is high-risk patients undergoing CABG surgery with cardiopulmonary bypass. As to the kind of experiment: Intravenous P5P in high-risk patients undergoing CABG surgery (Example 2, protocol of Example 1 repeated). The class given is in vivo, human. The settings on record: CK-MB cut-off 100 ng/ml. As to the method: The randomized, double-blind placebo-controlled, dose-ranging, parallel-arm multi-center study on high-risk patients undergoing CABG surgery with cardiopulmonary bypass of Experiment 1 is repeated using a protocol as described in Experiment 1, with the difference that the placebo/drug is administered intravenously, in an intravenous dose pharmacokinetically approximating the dosage given enterally in Experiment 1.
Approximately 3000 high-risk pre-CABG patients are screened and randomized to […], prior to their bypass surgery, as follows. Patients are either placed in a control group (placebo), treated intravenously with 5.00 mg/day of P5P, or treated intravenously with 23.33 mg/day of P5P.
Patients are identified as “high risk” if they had two or more of the following risk factors:
• Age greater than 65 years; • Current smoker; • History of diabetes mellitus requiring treatment other than diet; • Evidence of left ventricular dysfunction or congestive heart failure; • History of a previous non-disabling stroke, transient ischemic attack, or carotid endarterectomy; • Urgent CABG intervention defined as the need to stay in the hospital (although the patient may be operated on within a normal scheduling routine); • History of myocardial infarction that occurred more than 48 hours but less than 6 weeks prior to CABG surgery; • Prior peripheral artery surgery or angioplasty; • Moderate renal dysfunction defined as creatinine>133 μmol/L (1.5 mg/dl), but <250 μmol/L (2.8 mg/dl); and • Presence of at least one asymptomatic carotid artery stenosis (>50%) either in one or two carotid arteries.
The first dose of study medication is administered at 3-10 hours prior to CABG surgery. In the event of surgery delay or rescheduling, a second pre-operative dose of P5P is administered so that all patients receive study medication 3-10 hours before surgery. Treatment continues for 30 days after surgery (post operative day (POD) 30). Patients receive follow-up evaluations up to and including postoperative day on POD 30 and on POD 90.
Patients are measured for combined incidence of cardiovascular death and nonfatal myocardial infarction (MI) up to and including post-operative day 30 (POD 30). Patients are also measured for nonfatal myocardial infarction alone.
All deaths without an identifiable non-cardiovascular cause are considered of cardiovascular origin.
Cerebral infarction (stroke) is defined clinically as any new sudden onset focal neurological deficit lasting at least 24 hours as assessed by a neurologist and after neuroimaging (computed tomography [CT] brain scan or magnetic resonance imaging [MRI]) excludes an intracerebral hemorrhage. […]

The test system of assay [2] is adenosine triphosphate (ATP) induced calcium ion influx into cells. The following applies: a recent evaluation; suggested antagonism of P2 purinoceptors; cited from earlier work.

Regarding `Cc1ncc(COP(=O)(O)O)c(C=O)c1O` [P5P, 3-hydroxy-2-methyl-5-[(phosphonooxy)methyl]-4-pyridine-carboxaldehyde], the “reducing instances of myocardial infarction” value in assay [1] (intravenous 5.00 mg/day) and in assay [1] (intravenous 23.33 mg/day) was “highly effective” each time. Moreover, the “reducing total incidents (myocardial infarction, cerebral infarction, or death)” value in assay [1] (intravenous 5.00 mg/day, better than 23.33 mg/day) is listed as “highly effective”; in assay [1] (intravenous 23.33 mg/day), “highly effective”. Further, the “adenosine triphosphate (ATP) induced calcium ion influx into cells” value in assay [2] is listed as “inhibits”.

The values are drawn from patent US20070149485A1, “SELECTED DOSAGE FOR THE TREATMENT OF CARDIOVASCULAR AND RELATED PATHOLOGIES” (Medicure International, Inc., priority 2005, published 2007).
